The numbers were not newly measured in patent US20230295183A1, “HOT MELT EXTRUDED SOLID DISPERSIONS CONTAINING A BCL2 INHIBITOR” (Newave Pharmaceutical Inc., priority 2020, published 2023), which cites them from elsewhere.

The subject of data set [1] is established tumors. The settings on record: mouse, in vivo.
For data set [2] the following is noted: in vivo.
In data set [3] the test system is SCLC H146 cell line. The settings on record: read-out: IC50 against SCLC H146 cell line.
For data set [4], the system named is circulating platelets. The settings on record: clinical trial; dose-limiting thrombocytopenia.
Data set [5] addresses T1, Bcl-w (Homo sapiens, UniProt Q92843).
T1 sequence (Q92843 1-193): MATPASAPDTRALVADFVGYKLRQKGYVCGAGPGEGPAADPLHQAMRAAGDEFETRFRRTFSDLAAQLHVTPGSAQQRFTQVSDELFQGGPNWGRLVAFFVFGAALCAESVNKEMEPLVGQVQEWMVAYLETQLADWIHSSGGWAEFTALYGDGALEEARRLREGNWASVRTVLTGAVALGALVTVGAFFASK

The subject of data set [6] is xenograft models of small-cell lung cancer and acute lymphoblastic leukemia. The settings on record: oral administration, alone.
For data set [7], the system named is H345 xenograft. The settings on record: 100 mg/kg/day, H345 xenograft model.
Data set [8] has as its system CLL. The settings on record: read-out: average EC50, apoptosis in CLL.
Data set [9] has as its target Mcl-1 (Homo sapiens, UniProt Q07820).
Data set [10] concerns RS4;11 xenografts. The settings on record: single dose of 100 mg/kg.
The subject of data set [11] is RS4;11 cells.

A value given as a limit tells only on which side of the number the result lay.

Mcl-1, sequence (Q07820 whole entry): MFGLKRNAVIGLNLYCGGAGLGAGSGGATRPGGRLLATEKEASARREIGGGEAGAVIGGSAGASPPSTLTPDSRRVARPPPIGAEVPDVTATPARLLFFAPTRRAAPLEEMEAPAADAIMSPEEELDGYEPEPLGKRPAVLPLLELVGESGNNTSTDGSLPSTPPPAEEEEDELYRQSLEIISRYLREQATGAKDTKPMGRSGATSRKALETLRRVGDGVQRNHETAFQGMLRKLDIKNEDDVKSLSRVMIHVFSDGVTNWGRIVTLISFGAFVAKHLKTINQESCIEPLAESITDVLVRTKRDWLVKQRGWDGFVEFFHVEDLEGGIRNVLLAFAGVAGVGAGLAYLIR

Turning to `CN(C)CC[C@H](CSc1ccccc1)Nc1ccc(S(=O)(=O)NC(=O)c2ccc(N3CCN(Cc4ccccc4-c4ccc(Cl)cc4)CC3)cc2)cc1[N+](=O)[O-]` [ABT-737], the aqueous solubility entry is listed as “low aqueous solubility”. In data set [1], the “antitumor effect in animal models” value is given as “causes regression of established tumors”. In addition, the oral bioavailability result in [2] is “not orally bioavailable”.
Turning to `CC1(C)CCC(c2ccc(Cl)cc2)=C(CN2CCN(c3ccc(C(=O)NS(=O)(=O)c4ccc(N[C@H](CCN5CCOCC5)CSc5ccccc5)c(S(=O)(=O)C(F)(F)F)c4)cc3)CC2)C1` [ABT-263], the IC50 – broadly, the concentration that gives 50% inhibition – in [3] is 110 nM. Also, in [4], the “effect on number of circulating platelets” value was “rapid, concentration-dependent decrease in the number of circulating platelets”. Besides, in [5], the Ki (as a rule, a measure of affinity in units of concentration, obtained from inhibition or displacement) was no more than 1 nM. In addition, the “antitumor effect in xenograft models” value in data set [6] is “complete tumor regressions”. In data set [7], the TGI (usually how far tumour growth fell short of that in controls) was 80% and the “treated tumors indicating at least a 50% reduction in tumor volume” value is recorded as 20%. Besides, in [2], the oral bioavailability result is listed as “orally bioavailable”.
On to `CC1(C)CCC(CN2CCN(c3ccc(C(=O)NS(=O)(=O)c4ccc(NCC5CCOCC5)c([N+](=O)[O-])c4)c(Oc4cnc5[nH]ccc5c4)c3)CC2)=C(c2ccc(Cl)cc2)C1` [ABT-199], for which the EC50 (usually the concentration giving half of the maximal effect) in data set [8] was 3 nM. Moreover, the “activity to Mcl-1” value in data set [9] is listed as “no activity”. Also, in data set [10], the “maximal tumor growth inhibition” value is on record as 95% and the tumor growth delay is 152%. For the same molecule, the EC50 in [11] was 8 nM.
